Test results from patent publication US20110263425A1, “HERBICIDAL COMPOSITION AND METHOD OF USE THEREOF” (SYNGENTA CROP PROTECTION, INC., priority 2007, published 2011).

How the values were obtained:
Set-up in all cases: key to Synergy (actual significantly higher than expected): *indicates synergy
Conditions in all cases: for Weed control, Actual: tank mixture
[1] = test system: large crabgrass (Digitaria sanguinalis); assay: Glasshouse trial, control of large crabgrass, mesotrione and atrazine applied post-emergence; type: in vivo
Method: (§1) A glasshouse trial was carried out. Large crabgrass seeds were sown into standard glasshouse potting mix (1:1 v/v Promix:Vero sand soil) contained in 10 cm square plastic pots. Treatments were replicated three times. Mesotrione (in the form Callisto® 480SE) was applied post-emergence to large crabgrass (Digitaria sanguinalis) at either 12 g ai/ha or 24 g ai/ha with or without atrazine (in the form […]®. When used, atrazine was applied at a rate of 140 g ai/ha or 280 g ai/ha. The adjuvant system was X-77 at 0.1% v/v in deionised water. 200 litres of herbicide/adjuvant system was used per hectare. General weed control was evaluated at 7 and 14 days after treatment (DAT). It is noted that all herbicides were applied at reduced field rates because herbicide effects are magnified in a glasshouse environment. Rates were chosen to give a 50 to 70% level of control with herbicides applied alone as this allows for detection of any synergistic effect when tank mixtures are used. The results were evaluated using the Colby formula. The expected result for (A+B) is (A+B)-(A×B/100) where A and B are the 'observed' results for A and B on their own.

[2] = test system: white clover (Trifolium repens); assay: Glasshouse trial, control of white clover, mesotrione and atrazine applied post-emergence; type: in vivo
Method: [The source words this procedure for another organism and says it was used here with some conditions changed.] as §1, with “own. […] A glasshouse trial was carried out as described in Example 1, but the herbicidal composition was applied to white clover (Trifolium repens) instead of large crabgrass, and higher rates of mesotrione were used.” for “own.”

large crabgrass = assay: Glasshouse trial, control of large crabgrass, mesotrione and atrazine applied pre-emergence; type: in vivo, Digitaria sanguinalis
Method: as §1, with “own. […] A glasshouse trial was carried out as described in Example 1, but the herbicidal composition was applied pre-emergence, and higher rates of atrazine were used.” for “own.”

[3] = atrazine 140 g ai/ha plus mesotrione at 12 g ai/ha
[4] = atrazine 140 g ai/ha plus mesotrione at 24 g ai/ha
[5] = atrazine 280 g ai/ha plus mesotrione at 12 g ai/ha
[6] = atrazine 280 g ai/ha plus mesotrione at 24 g ai/ha
[7] = atrazine 140 g ai/ha plus mesotrione at 50 g ai/ha
[8] = atrazine 140 g ai/ha plus mesotrione at 100 g ai/ha
[9] = atrazine 280 g ai/ha plus mesotrione at 50 g ai/ha
[10] = atrazine 280 g ai/ha plus mesotrione at 100 g ai/ha
[11] = atrazine 560 g ai/ha plus mesotrione at 12 g ai/ha
[12] = atrazine 560 g ai/ha plus mesotrione at 24 g ai/ha

CCNc1nc(Cl)nc(NC(C)C)n1 [Atrazine, 6-chloro-N-ethyl-N-isopropyl-1,3,5-triazine-2,4-diamine]
Synergy (actual significantly higher than expected) [1, 3]: * | Weed control, Expected (Colby formula) [1, 3]: 37% | Weed control, Actual [1, 3]: 48% | Synergy (actual significantly higher than expected) [1, 4]: * | Weed control, Expected (Colby formula) [1, 4]: 68% | Weed control, Actual [1, 4]: 78% | Synergy (actual significantly higher than expected) [1, 5]: * | Weed control, Expected (Colby formula) [1, 5]: 37% | Weed control, Actual [1, 5]: 62% | Synergy (actual significantly higher than expected) [1, 6]: * | Weed control, Expected (Colby formula) [1, 6]: 68% | Weed control, Actual [1, 6]: 77% | Weed control, Expected (Colby formula) [2, 7]: 58% | Weed control, Actual [2, 7]: 57% | Synergy (actual significantly higher than expected) [2, 8]: * | Weed control, Expected (Colby formula) [2, 8]: 68% | Weed control, Actual [2, 8]: 80% | Weed control, Expected (Colby formula) [2, 9]: 74% | Weed control, Actual [2, 9]: 73% | Synergy (actual significantly higher than expected) [2, 10]: * | Weed control, Expected (Colby formula) [2, 10]: 80% | Weed control, Actual [2, 10]: 88% | Synergy (actual significantly higher than expected) (large crabgrass; [5]): * | Weed control, Expected (Colby formula) (large crabgrass; [5]): 68% | Weed control, Actual (large crabgrass; [5]): 75% | Weed control, Expected (Colby formula) (large crabgrass; [6]): 97% | Weed control, Actual (large crabgrass; [6]): 87% | Synergy (actual significantly higher than expected) (large crabgrass; [11]): * | Weed control, Expected (Colby formula) (large crabgrass; [11]): 60% | Weed control, Actual (large crabgrass; [11]): 90% | Weed control, Expected (Colby formula) (large crabgrass; [12]): 96% | Weed control, Actual (large crabgrass; [12]): 98%
